Assay results published in ChEMBL document CHEMBL4130375, “Design, synthesis and biological evaluation of 4-amidobenzimidazole acridine derivatives as dual PARP and Topo inhibitors for cancer therapy” (Eur J Med Chem, 2017).
Activity calls are given as the source filed them. The rule behind the calls is not given here.

Columns and labels:
MCF7 [1] = test: Induction of apoptosis in human MCF7 cells assessed as early apoptotic cells at 1 uM after 48 hrs by Annexin V-FITC/propidium iodide staining based flow cytometry (reference value: 0.108%); assay type: functional
MCF7 [2] = test: Upregulation of p27 protein expression in human MCF7 cells after 24 hrs by Western blot method; assay type: functional, cell-based
MCF7 [3] = test: Induction of DNA double strand breaks in human MCF7 cells assessed as increase in gammaH2AX level after 24 hrs by Western blot analysis; assay type: functional, cell-based
[4] = target: DNA topoisomerase 2-alpha (Homo sapiens) (UniProt P11388); test: Poison activity at topoisomerase-2 in human MCF7 cells assessed as enzyme-DNA complex formation by measuring decrease in topoisomerase-2 protein expression after 24 hrs by Western blot analysis; assay type: cell-based
MCF7 [5] = test: Upregulation of p18 protein expression in human MCF7 cells after 24 hrs by Western blot method; assay type: functional, cell-based
[6] = Intrinsic clearance in mouse liver microsomes at 1.11 uM preincubated for 5 mins followed by NADPH addition by LC-MS/MS analysis; assay type: ADME, microsome; conditions: read-out: CLH
[7] = Half life in rat liver microsomes at 1.11 uM preincubated for 5 mins followed by NADPH addition by LC-MS/MS analysis; assay type: ADME, microsome
[8] = Half life in human liver microsomes at 1.11 uM preincubated for 5 mins followed by NADPH addition by LC-MS/MS analysis; assay type: ADME, microsome
[9] = Intrinsic clearance in rat liver microsomes at 1.11 uM preincubated for 5 mins followed by NADPH addition by LC-MS/MS analysis; assay type: ADME, microsome; conditions: read-out: CLH
Cytochrome P450 2D6 = Cytochrome P450 2D6 (Homo sapiens, UniProt P10635); test: Inhibition of CYP2D6 in human liver microsomes preincubated for 10 mins followed by NADPH/substrate addition measured after 20 mins by LC-MS/MS analysis
MCF7 [10] = test: Cell cycle arrest in human MCF7 cells assessed as accumulation at G2/M phase at 5 uM after 24 hrs by propidium iodide staining based flow cytometry (reference value: 22.61 +/- 1.55%); assay type: functional
MCF7 [11] = test: Induction of apoptosis in human MCF7 cells assessed as live cells at 1 uM after 48 hrs by Annexin V-FITC/propidium iodide staining based flow cytometry (reference value: 99.9%); assay type: functional
MCF7 [12] = test: Cell cycle arrest in human MCF7 cells assessed as accumulation at G0/G1 phase at 5 uM after 24 hrs by propidium iodide staining based flow cytometry (reference value: 17.67 +/- 1.25%); assay type: functional
[13] = target: T1, DNA topoisomerase 1 (Homo sapiens) (UniProt P11387); test: Inhibition of topoisomerase-1 in human MCF7 cells assessed as enzyme-DNA cleavage complex formation by measuring decrease in topoisomerase-1 protein expression after 24 hrs by Western blot analysis; assay type: cell-based
T1 sequence (whole entry): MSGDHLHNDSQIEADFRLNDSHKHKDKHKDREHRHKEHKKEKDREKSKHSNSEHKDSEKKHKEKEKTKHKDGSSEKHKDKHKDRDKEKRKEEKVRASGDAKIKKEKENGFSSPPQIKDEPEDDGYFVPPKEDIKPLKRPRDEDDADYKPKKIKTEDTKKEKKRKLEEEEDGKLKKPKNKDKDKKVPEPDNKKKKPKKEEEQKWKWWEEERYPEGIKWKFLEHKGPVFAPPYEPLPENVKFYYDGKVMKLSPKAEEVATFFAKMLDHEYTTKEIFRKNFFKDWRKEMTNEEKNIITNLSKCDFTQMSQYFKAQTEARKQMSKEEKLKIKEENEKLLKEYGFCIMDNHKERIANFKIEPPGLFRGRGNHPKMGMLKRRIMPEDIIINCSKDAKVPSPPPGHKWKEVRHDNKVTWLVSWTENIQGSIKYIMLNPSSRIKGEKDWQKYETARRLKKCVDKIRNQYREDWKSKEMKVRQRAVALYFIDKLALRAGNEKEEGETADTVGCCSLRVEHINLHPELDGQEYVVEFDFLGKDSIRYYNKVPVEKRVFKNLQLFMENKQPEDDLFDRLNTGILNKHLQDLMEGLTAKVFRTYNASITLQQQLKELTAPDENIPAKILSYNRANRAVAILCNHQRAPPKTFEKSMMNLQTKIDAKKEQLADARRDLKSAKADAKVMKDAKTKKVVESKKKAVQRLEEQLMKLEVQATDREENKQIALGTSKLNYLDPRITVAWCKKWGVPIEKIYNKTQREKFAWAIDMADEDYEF

Cytochrome P450 2C19 = Cytochrome P450 2C19 (Homo sapiens, UniProt P33261); test: Inhibition of CYP2C19 in human liver microsomes preincubated for 10 mins followed by NADPH/substrate addition measured after 20 mins by LC-MS/MS analysis
MCF7 [14] = test: Upregulation of cleaved caspase-9 protein expression in human MCF7 cells after 24 hrs by Western blot method; assay type: functional, cell-based
MCF7 [15] = test: Downregulation of CDK2 protein expression in human MCF7 cells up to 10 uM after 24 hrs by Western blot method; assay type: functional, cell-based
MCF7 [16] = test: Cell cycle arrest in human MCF7 cells assessed as accumulation at S phase at 5 uM after 24 hrs by propidium iodide staining based flow cytometry (reference value: 59.72 +/- 2.98%); assay type: functional
[17] = target: T1, DNA topoisomerase 1 (Homo sapiens); test: Inhibition of human topoisomerase-1 at 2 to 100 uM using supercoiled pBR322 DNA as substrate after 10 to 15 mins by ethidium bromide staining based electrophoresis method
MCF7 [18] = test: cells; conditions: Homo sapiens, MCF7, 72 h
MCF7 [19] = test: Induction of apoptosis in human MCF7 cells assessed as early apoptotic cells at 5 uM after 48 hrs by Annexin V-FITC/propidium iodide staining based flow cytometry (reference value: 0.108%); assay type: functional
Cytochrome P450 2C9 = Cytochrome P450 2C9 (Homo sapiens, UniProt P11712); test: Inhibition of CYP2C9 in human liver microsomes preincubated for 10 mins followed by NADPH/substrate addition measured after 20 mins by LC-MS/MS analysis
MCF7 [20] = test: Induction of apoptosis in human MCF7 cells assessed as necrotic cells at 10 uM after 48 hrs by Annexin V-FITC/propidium iodide staining based flow cytometry (reference value: 0%); assay type: functional
HCC1937 = test: Antiproliferative activity against human HCC1937 cells harboring BRCA1 mutant after 72 hrs by MTT assay; assay type: functional, cell-based; conditions: HCC1937, 72 h
MCF7 [21] = test: Cell cycle arrest in human MCF7 cells assessed as accumulation at G0/G1 phase at 10 uM after 24 hrs by propidium iodide staining based flow cytometry (reference value: 17.67 +/- 1.25%); assay type: functional
MCF7 [22] = test: Induction of apoptosis in human MCF7 cells assessed as late apoptotic cells at 5 uM after 48 hrs by Annexin V-FITC/propidium iodide staining based flow cytometry (reference value: 0%); assay type: functional
[23] = target: Poly [ADP-ribose] polymerase 1 (Homo sapiens, UniProt P09874); test: Inhibition of PARP1 (unknown origin) assessed as reduction in biotinylated poly(ADP-ribose) incorporation on to histone protein by ELISA based colorimetric assay
MCF7 [24] = test: Downregulation of CyclinD protein expression in human MCF7 cells up to 10 uM after 24 hrs by Western blot method; assay type: functional, cell-based

Chain of Cytochrome P450 2C9 (P11712 whole entry): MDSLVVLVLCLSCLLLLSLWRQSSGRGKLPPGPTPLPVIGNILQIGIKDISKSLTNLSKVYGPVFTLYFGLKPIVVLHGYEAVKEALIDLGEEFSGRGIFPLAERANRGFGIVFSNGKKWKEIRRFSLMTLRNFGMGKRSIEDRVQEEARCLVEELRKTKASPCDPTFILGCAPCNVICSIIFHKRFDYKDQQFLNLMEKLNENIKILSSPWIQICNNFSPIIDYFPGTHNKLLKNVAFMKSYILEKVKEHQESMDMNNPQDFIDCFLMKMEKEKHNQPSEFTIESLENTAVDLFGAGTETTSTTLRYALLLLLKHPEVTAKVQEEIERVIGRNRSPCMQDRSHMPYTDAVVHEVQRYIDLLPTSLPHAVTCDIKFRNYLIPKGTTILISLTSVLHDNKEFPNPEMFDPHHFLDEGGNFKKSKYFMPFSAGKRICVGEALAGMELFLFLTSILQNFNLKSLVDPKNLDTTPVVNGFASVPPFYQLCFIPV
Chain of DNA topoisomerase 2-alpha (Homo sapiens) (P11388 whole entry): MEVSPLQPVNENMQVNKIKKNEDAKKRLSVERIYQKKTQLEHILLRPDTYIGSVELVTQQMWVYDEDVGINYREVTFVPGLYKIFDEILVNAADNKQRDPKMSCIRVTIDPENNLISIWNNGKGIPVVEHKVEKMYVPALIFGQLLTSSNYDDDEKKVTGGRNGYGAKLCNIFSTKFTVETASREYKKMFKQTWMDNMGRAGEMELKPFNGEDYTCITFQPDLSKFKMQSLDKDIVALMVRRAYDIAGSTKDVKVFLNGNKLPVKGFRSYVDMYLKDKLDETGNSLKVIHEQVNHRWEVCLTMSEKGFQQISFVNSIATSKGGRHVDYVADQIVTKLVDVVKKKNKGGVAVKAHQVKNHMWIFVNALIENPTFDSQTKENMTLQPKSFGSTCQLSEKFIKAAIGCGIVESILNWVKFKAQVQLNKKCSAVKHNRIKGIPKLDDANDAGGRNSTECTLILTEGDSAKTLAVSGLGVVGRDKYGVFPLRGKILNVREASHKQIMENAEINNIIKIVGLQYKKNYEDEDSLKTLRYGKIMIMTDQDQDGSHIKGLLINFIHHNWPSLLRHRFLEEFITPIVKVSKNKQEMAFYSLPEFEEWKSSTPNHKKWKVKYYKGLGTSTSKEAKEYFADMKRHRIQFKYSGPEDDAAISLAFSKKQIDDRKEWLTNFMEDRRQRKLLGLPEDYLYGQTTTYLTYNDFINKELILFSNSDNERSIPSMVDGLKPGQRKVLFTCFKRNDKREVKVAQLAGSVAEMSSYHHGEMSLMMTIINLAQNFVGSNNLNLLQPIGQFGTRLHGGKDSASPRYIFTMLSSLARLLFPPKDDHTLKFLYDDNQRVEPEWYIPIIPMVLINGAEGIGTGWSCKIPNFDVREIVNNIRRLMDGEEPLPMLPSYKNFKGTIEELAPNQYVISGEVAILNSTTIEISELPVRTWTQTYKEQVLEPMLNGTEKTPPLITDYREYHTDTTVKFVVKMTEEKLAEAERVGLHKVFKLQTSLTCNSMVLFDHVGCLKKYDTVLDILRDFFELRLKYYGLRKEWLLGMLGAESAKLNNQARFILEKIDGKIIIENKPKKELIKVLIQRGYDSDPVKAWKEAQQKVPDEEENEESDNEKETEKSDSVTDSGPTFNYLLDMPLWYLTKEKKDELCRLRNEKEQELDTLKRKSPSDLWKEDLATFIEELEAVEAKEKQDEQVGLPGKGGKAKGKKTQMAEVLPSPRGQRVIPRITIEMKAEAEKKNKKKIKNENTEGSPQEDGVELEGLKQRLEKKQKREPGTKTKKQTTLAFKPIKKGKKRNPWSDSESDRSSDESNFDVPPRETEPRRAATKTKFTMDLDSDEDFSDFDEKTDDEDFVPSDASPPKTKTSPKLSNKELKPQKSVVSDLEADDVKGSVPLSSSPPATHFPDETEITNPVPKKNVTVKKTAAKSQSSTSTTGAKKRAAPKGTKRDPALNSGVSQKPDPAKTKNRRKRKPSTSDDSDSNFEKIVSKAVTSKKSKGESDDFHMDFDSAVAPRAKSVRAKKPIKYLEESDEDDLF
Chain of Poly [ADP-ribose] polymerase 1 (P09874 whole entry): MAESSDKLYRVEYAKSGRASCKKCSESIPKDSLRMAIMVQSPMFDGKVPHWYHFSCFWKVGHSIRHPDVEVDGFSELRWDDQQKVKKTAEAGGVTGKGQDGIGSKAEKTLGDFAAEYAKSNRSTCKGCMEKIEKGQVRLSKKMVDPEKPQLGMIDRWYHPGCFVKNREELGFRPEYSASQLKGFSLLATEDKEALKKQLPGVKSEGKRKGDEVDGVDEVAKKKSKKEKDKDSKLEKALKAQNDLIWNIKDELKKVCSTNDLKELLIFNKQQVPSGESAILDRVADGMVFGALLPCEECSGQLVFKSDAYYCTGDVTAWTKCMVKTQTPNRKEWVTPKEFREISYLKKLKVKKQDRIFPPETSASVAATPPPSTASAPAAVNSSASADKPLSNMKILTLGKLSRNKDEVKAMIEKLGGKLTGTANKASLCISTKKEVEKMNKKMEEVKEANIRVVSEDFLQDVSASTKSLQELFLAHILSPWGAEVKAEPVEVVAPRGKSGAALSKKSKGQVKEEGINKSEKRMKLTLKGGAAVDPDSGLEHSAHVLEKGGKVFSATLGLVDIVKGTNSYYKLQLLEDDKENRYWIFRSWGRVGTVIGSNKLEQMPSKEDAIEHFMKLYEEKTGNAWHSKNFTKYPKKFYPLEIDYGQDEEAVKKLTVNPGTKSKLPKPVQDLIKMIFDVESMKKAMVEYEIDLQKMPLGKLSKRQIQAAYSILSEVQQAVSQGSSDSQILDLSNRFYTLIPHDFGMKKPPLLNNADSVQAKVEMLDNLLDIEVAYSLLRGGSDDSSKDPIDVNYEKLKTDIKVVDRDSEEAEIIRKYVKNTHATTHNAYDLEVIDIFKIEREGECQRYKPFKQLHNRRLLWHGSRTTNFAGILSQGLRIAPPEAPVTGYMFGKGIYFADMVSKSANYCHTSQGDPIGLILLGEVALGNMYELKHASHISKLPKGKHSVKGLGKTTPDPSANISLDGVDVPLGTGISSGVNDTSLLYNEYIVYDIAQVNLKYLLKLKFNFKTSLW
Chain of Cytochrome P450 2D6 (P10635 whole entry): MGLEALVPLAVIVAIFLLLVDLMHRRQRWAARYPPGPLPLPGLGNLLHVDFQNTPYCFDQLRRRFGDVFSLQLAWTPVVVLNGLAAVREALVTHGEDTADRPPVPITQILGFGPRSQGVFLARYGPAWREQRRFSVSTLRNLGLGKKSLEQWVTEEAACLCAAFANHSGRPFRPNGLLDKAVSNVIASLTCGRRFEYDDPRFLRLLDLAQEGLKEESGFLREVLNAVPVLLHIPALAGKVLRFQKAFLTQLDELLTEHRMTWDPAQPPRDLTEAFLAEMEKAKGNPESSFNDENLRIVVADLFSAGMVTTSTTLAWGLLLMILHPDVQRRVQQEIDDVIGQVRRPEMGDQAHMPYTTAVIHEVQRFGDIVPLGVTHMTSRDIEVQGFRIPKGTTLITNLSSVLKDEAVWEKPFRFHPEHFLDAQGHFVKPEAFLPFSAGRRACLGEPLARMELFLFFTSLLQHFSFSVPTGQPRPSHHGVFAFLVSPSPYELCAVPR
Chain of Cytochrome P450 2C19 (P33261 whole entry): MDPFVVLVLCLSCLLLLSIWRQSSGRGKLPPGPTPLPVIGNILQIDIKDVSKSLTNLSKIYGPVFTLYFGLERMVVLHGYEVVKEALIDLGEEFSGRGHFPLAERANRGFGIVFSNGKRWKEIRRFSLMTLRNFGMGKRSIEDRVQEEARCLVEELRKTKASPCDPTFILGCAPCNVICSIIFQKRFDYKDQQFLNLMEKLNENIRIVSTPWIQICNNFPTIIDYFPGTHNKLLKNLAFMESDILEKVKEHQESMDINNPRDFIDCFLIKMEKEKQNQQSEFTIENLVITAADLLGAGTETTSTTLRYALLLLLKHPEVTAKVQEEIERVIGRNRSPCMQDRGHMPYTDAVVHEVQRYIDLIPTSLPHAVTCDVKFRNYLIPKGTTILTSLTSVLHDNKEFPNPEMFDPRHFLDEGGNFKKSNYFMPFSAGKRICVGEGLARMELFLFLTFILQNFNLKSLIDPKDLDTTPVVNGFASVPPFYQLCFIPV

Cc1cccc2c(Nc3cccc(-c4nc5c(C(N)=O)cccc5[nH]4)c3)c3ccccc3nc12
Activity (MCF7 [1]): 34.4%
Activity (MCF7 [2]): Dose-dependent effect
Activity (MCF7 [3]): Dose-dependent effect
Activity [4]: Dose-dependent effect
Activity (MCF7 [5]): Dose-dependent effect
microsomal CLint at 1.11 µM [6]: 11.4 µL/min/mg
half-life at 1.11 µM [7]: 34.8 min
half-life at 1.11 µM [8]: 27.8 min
microsomal CLint at 1.11 µM [9]: 28.4 µL/min/mg
IC50 (Cytochrome P450 2D6): > 10 µM
Activity (MCF7 [10]): 14.08%
Activity (MCF7 [11]): 42.9%
Activity (MCF7 [12]): 43.62%
inhibition [13]: Dose-dependent effect
IC50 (Cytochrome P450 2C19): > 10 µM
Activity (MCF7 [14]): Dose-dependent effect
Activity (MCF7 [15]): Active
Activity (MCF7 [16]): 42.32%
inhibition [17]: Active
IC50 (MCF7 [18]): 2.14 µM
Activity (MCF7 [19]): 23.9%
IC50 (Cytochrome P450 2C9): 2.2 µM
Activity (MCF7 [20]): 0.327%
IC50 (HCC1937): 0.83 µM
Activity (MCF7 [21]): 58.27%
Activity (MCF7 [22]): 36.4%
IC50 [23]: 0.45 µM
Activity (MCF7 [24]): Active
